Where two headings read alike, the source gives them in different places.
Tests used:
[1] = molecular target: human serotonin transporter (h-SERT) (Homo sapiens (Human), UniProt P31645); assay: [3H] citalopram binding assay to evaluate human serotonin reuptake inhibitory action (h-SERT binding assay); details: [3H] citalopram binding; read-out: Test Ex. 1: h-SERT binding inhibition constant Ki
Procedure: Citalopram Binding Assay to Evaluate Human Serotonin Reuptake Inhibitory Action
Preparation of the Cells and Membrane Preparations
In the experiment, human serotonin transporter (h-SERT) was expressed in CHO cells (h-SERT/CHO). The cells were incubated with F12 containing 10% FCS, 500 μg/mL Geneticin and 100 U/mL penicillin—100 μg/mL streptmycin (all manufactured by Sigma Aldrich) in an incubator containing 5% CO2; detached and collected using a SERT buffer [50 mmol/L Tris-HCl comprising 120 mmol/L NaCl and 5 mmol/L KCl (pH=7.4)]; homogenized with a homogenizer manufactured by Teflon (trademark); and then centrifuged (50,000×g, 30 min, 4° C.). The precipitate was suspended again in the appropriate amount of SERT buffer (to give a membrane preparation), and stored at −80° C. until used. The amount of protein in the membrane preparation was assayed by Dye Reagent Concentrate (manufactured by BIO-RAD) using bovine serum albumin (manufactured by Sigma Aldrich) as a standard.
1-2. h-SERT Binding Assay
The [^3H] citalopram binding was measured according to the method disclosed in Owens M. J. et al., J. Pharm. […] The solution was reacted at room temperature for 60 minutes, and then quickly suction-filtered under reduced pressure through a glass fiber filter coated with 0.05% aq. polyethyleneimine. The glass fiber filter was washed twice with […] of the SERT buffer, placed in a plastic vial containing 4 mL of liquid scintillator (ACS-II, manufactured by Amersham) or Ecoscint A (manufactured by National Diagnostics), and the remaining radioactivity on the filter paper was assayed with a liquid scintillation counter.

[2] = molecular target: human serotonin 2C receptor (h-5-HT2C) (Homo sapiens (Human), UniProt P28335); assay: 5-HT2C receptor agonistic action assay (FLIPR Calcium 4 Assay kit, h-5-HT2C/CHO cells); format: cell-based
Procedure: 3-1. The Cells and Inoculation Thereof
In the experiment, human serotonin 2C receptor (h-5-HT2C) was expressed in CHO cells (h-5-HT2C/CHO). The cells were incubated with UltraCHO Lipuid (trademark) (manufactured by BioWhitakker) containing 1% FBS, 400 μg/mL Geneticin, 100 U/mL penicillin—100 μg/mL streptomycin (all manufactured by Sigma Aldrich) and 250 μg/mL Zeosin (manufactured by InvivoGen) in an incubator containing 5% CO2. On the day before using the cells, they were detached and collected using 250 μg/mL Trypsin solution (manufactured by Nacalai Tesque), then inoculated in a 96 well flat clear bottom black polystyrene TC-treated microplates (manufactured by Corning) at 40000 cells/well/60 μL in an incubator containing 5% CO2 for 16 hours to 24 hours.
3-2. 5-HT2C Receptor Agonistic Action Assay
The 5-HT2C receptor agonistic action was evaluated with FLIPR Calcium 4 Assay kit (manufactured by Molecular Devices). In specific, to the cells inoculated in the plate were added Component A of FLIPR Calcium 4 Assay kit dissolved in 100 mL of HHBP buffer (1×Hanks buffer, 20 mmol/L HEPES, both manufactured by Gibco) at an amount of 40 μL/well, and the cells were incubated in an incubator containing 5% CO2 for 1 hour. Then, the cells were set in FLIPR TETRA (trademark) (manufactured by Molecular Devices), to the cells was added the test material diluted with HHBP buffer, 2.5 mmol/L Probenecid (manufactured by Sigma) (concentration after dilution: 10 μmol/L) at an amount of 20 μL/well, and the fluorescence was measured. Then, in order to evaluate the antagonistic action of the test material, 20 μL/well of 5-HT solution (manufactured by Sigma, final concentration: 0.1 nmol/L) was further added to the cells, and the fluorescence was measured.
The 5-HT2C receptor agonistic action of each test material was calculated as a rate of fluorescence enhancement wherein 100% was defined as a value when the cells were given 10 μmol/L 5-HT. Furthermore, the 5-HT2C receptor inverse agonistic action was calculated as a rate of fluorescence decay wherein −100% was defined as a value when the cells were given 10 μmol/L SB206553 (manufactured by Sigma Aldrich). A lower value of the 5-HT2C receptor agonistic action of the test material means that the material has a higher antagonistic action. In particular, when the value of the 5-HT2C receptor agonistic action of the test material is below 0%, the material has an inverse agonistic action for 5-HT2C receptor.

[3] = test material 10 μmol/L, 100% = 10 μmol/L 5-HT, −100% = 10 μmol/L SB206553, below 0% = inverse agonistic action

Sequence of human serotonin 2C receptor (h-5-HT2C) (P28335 whole entry, looked up): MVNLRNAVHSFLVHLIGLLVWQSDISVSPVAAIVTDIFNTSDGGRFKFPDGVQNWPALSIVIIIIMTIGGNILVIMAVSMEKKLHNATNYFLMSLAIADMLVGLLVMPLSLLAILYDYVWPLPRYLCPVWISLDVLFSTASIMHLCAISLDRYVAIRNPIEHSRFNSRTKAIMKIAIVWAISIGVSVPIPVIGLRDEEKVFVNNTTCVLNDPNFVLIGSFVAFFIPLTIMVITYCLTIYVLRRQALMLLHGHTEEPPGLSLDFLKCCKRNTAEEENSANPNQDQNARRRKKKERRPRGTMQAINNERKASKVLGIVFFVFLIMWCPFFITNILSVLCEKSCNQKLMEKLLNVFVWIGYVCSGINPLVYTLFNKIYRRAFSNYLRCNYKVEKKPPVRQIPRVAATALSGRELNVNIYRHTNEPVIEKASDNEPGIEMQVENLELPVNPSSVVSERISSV

Structure (SMILES) | Ki [1] | Test Ex. 3: 5-HT2C receptor agonistic action [2, 3] | Test Ex. 3: 5-HT2C receptor agonistic action [2]
CNCc1cc(OCc2cccc(OC)c2)n(CC2CCCCC2)n1 [Compound 42] | 4.9 nM | −106% | 
CNCc1cc(OCc2cc(Cl)ccc2F)n(CC2(OC)CCCCC2)n1 [Compound 434] | 4.5 nM | −87% | 
CNCc1cc(OCc2cc(Cl)ccc2F)n(CC(C)(C)C)n1 [Example 259, 1-{5-[(5-chloro-2-fluorobenzyl)oxy]-1-(2,2-dimethylpropyl)-1H-pyrazol-3-yl}-N-methylmethanamine] |  | −119% | 
CNCc1cc(OCc2cc(Cl)ccc2F)n(CC2CCCCO2)n1.Cl (single isomer, unassigned; (+)) [Example 475, (+)-1-{5-[(5-chloro-2-fluorobenzyl)oxy]-1-(tetrahydro-2H-pyran-2-ylmethyl)-1H-pyrazol-3-yl}-N-methylmethanamine] |  | −95% | 
CNC(C)c1cc(OCc2cc(F)ccc2F)n(CCC2CCCC2)n1 (centres unmarked) [Example 315, 1-{1-(2-cyclopentylethyl)-5-[(2,5-difluorobenzyl)oxy]-1H-pyrazol-3-yl}-N-methylethanamine] |  | −84% | 
CNC(C)c1cc(OCc2cc(F)ccc2F)n(CCC2CCCC2)n1 (single isomer, unassigned; (+)) [Example 477, (+)-1-{1-(2-cyclopentylethyl)-5-[(2,5-difluorobenzyl)-oxy]-1H-pyrazol-3-yl}-N-methylethanamine] |  | −94% | 
CNCc1cc(OCc2cc(Cl)ccc2F)n(CCC(C)(C)OC)n1 [Example 275, 1-{5-[(5-chloro-2-fluorobenzyl)oxy]-1-(3-methoxy-3-methylbutyl)-1H-pyrazol-3-yl}-N-methylmethanamine] |  |  | −88%
CNCc1cc(OCc2cc(Cl)ccc2F)n(CC2CCCCO2)n1 (single isomer, unassigned; (-)) [Example 474, (−)-1-{5-[(5-chloro-2-fluorobenzyl)oxy]-1-(tetrahydro-2H-pyran-2-ylmethyl)-1H-pyrazol-3-yl}-N-methylmethanamine] |  | −111% | 
CNCc1cc(OCc2cc(F)ccc2F)n(CCC(C)(C)C)n1 [Example 266, 1-{5-[(2,5-difluorobenzyl)oxy]-1-(3,3-dimethylbutyl)-1H-pyrazol-3-yl}-N-methylmethanamine] |  | −86% | 
